Measured values taken from US10047069B2, “Compositions comprising an inhibitor of lysine specific demethylase-1” (Celgene Quanticel Research, Inc., priority 2015, dated 2018).
In brackets after ≈: the same amount, converted by molar mass.

Legend:
Type in all cases: physicochemical
[1] = Stability post-storage at 40° C./75% RH assessed by XRPD; settings: form change assessed by XRPD
Protocol: (§1) Representative samples for the twenty-six forms were further analysed by NMR/IC and DSC. The stability of the samples after storage at 40° C./75% RH was also assessed by XRPD. Solubility in FeSSIF media was determined for selected samples. […] IC was employed to determine the molar equivalence for inorganic counterions, sulphate and phosphate.

[2] = Thermodynamic solubility in FeSSIF; settings: for Solubility in FeSSiF: fed state simulated intestinal fluid (FeSSIF), equilibrated at 25° C. for 24 hours; for XRPD of residue: residue of the FeSSIF solubility test, analysed by XRPD as a damp solid
Protocol: Solubility was determined by suspending sufficient compound in fed state simulated intestinal fluid (FeSSIF) to give a maximum final concentration of >3 mg/ml of the parent free-form of the compound. The suspension was equilibrated at 25° C. for 24 hours then the pH was measured. The suspension was then filtered through a glass fibre C filter. The residue was analysed by XRPD as a damp solid. The filtrate was diluted by an appropriate factor prior to analysis by HPLC. Quantitation by HPLC was performed with reference to a standard solution of approximately 0.2 mg/ml in DMSO. Different volumes of the standard, diluted and undiluted sample solutions were injected. The solubility was calculated using the peak areas determined by integration of the peak found at the same retention time as the principal peak in the standard injection. Analysis was performed on an Agilent HP1100 series system equipped with a diode array detector and using ChemStation software vB.04.03.

[3] = Thermal stability from onset of DSC events; settings: onsets of DSC events greater than 200° C.
Protocol: DSC data were collected on a Mettler DSC 823E equipped with a 34 position auto-sampler. The instrument was calibrated for energy and temperature using certified indium. Typically, 0.9-6 mg of each sample, in a pin-holed aluminum pan, was heated at 10° C./min from 25° C. to 350° C. A nitrogen purge at 50 ml/min was maintained over the sample. The instrument control and data analysis software was STARe v12.1.
The twenty remaining forms have thermal events occurring from as low as ˜30° C. These may be solvated/hydrated forms.

[4] = Salt screen assessment compared to the HCl salt
Protocol: as §1

Row | Structure (SMILES) | Stability post-storage at 40° C./75% RH [1] | also measured
1 | COc1ccc(-c2c(-c3ccc(C#N)c(F)c3)nc(N3CCC(N)CC3)n(C)c2=O)cc1F [SUCA 2, 4-[2-(4-aminopiperidin-1-yl)-5-(3-fluoro-4-methoxyphenyl)-1-methyl-6-oxo-1,6-dihydropyrimidin-4-yl]-2-fluorobenzonitrile] | Pattern change | 
2 | COc1ccc(-c2c(-c3ccc(C#N)c(F)c3)nc(N3CCC(N)CC3)n(C)c2=O)cc1F [free base, 4-[2-(4-aminopiperidin-1-yl)-5-(3-fluoro-4-methoxyphenyl)-1-methyl-6-oxo-1,6-dihydropyrimidin-4-yl]-2-fluorobenzonitrile] |  | Solubility in FeSSiF [2]: 280 µg/mL (≈ 620 µM)
3 | COc1ccc(-c2c(-c3ccc(C#N)c(F)c3)nc(N3CCC(N)CC3)n(C)c2=O)cc1F [pTSA 2, 4-[2-(4-aminopiperidin-1-yl)-5-(3-fluoro-4-methoxyphenyl)-1-methyl-6-oxo-1,6-dihydropyrimidin-4-yl]-2-fluorobenzonitrile] | Slight change in pattern | 
4 | COc1ccc(-c2c(-c3ccc(C#N)c(F)c3)nc(N3CCC(N)CC3)n(C)c2=O)cc1F [BSA 1, 4-[2-(4-aminopiperidin-1-yl)-5-(3-fluoro-4-methoxyphenyl)-1-methyl-6-oxo-1,6-dihydropyrimidin-4-yl]-2-fluorobenzonitrile] | No form change | Solubility in FeSSiF [2]: 840 µg/mL (≈ 1860 µM); XRPD of residue [2]: BSA 1 - poor; thermal stability [3]: good thermal stability; stability and solubility when compared to the HCl salt [4]: improved stability and solubility
5 | COc1ccc(-c2c(-c3ccc(C#N)c(F)c3)nc(N3CCC(N)CC3)n(C)c2=O)cc1F [TAR 1, 4-[2-(4-aminopiperidin-1-yl)-5-(3-fluoro-4-methoxyphenyl)-1-methyl-6-oxo-1,6-dihydropyrimidin-4-yl]-2-fluorobenzonitrile] | Pattern change | 
6 | COc1ccc(-c2c(-c3ccc(C#N)c(F)c3)nc(N3CCC(N)CC3)n(C)c2=O)cc1F [PHOA 2, 4-[2-(4-aminopiperidin-1-yl)-5-(3-fluoro-4-methoxyphenyl)-1-methyl-6-oxo-1,6-dihydropyrimidin-4-yl]-2-fluorobenzonitrile] | Pattern change | 
7 | COc1ccc(-c2c(-c3ccc(C#N)c(F)c3)nc(N3CCC(N)CC3)n(C)c2=O)cc1F [MLNA 2, 4-[2-(4-aminopiperidin-1-yl)-5-(3-fluoro-4-methoxyphenyl)-1-methyl-6-oxo-1,6-dihydropyrimidin-4-yl]-2-fluorobenzonitrile] | Pattern change | 
8 | COc1ccc(-c2c(-c3ccc(C#N)c(F)c3)nc(N3CCC(N)CC3)n(C)c2=O)cc1F [CA 1, 4-[2-(4-aminopiperidin-1-yl)-5-(3-fluoro-4-methoxyphenyl)-1-methyl-6-oxo-1,6-dihydropyrimidin-4-yl]-2-fluorobenzonitrile] | Pattern change | 
9 | COc1ccc(-c2c(-c3ccc(C#N)c(F)c3)nc(N3CCC(N)CC3)n(C)c2=O)cc1F [CA 2, 4-[2-(4-aminopiperidin-1-yl)-5-(3-fluoro-4-methoxyphenyl)-1-methyl-6-oxo-1,6-dihydropyrimidin-4-yl]-2-fluorobenzonitrile] | No form change | 
10 | COc1ccc(-c2c(-c3ccc(C#N)c(F)c3)nc(N3CCC(N)CC3)n(C)c2=O)cc1F [SUCA 1, 4-[2-(4-aminopiperidin-1-yl)-5-(3-fluoro-4-methoxyphenyl)-1-methyl-6-oxo-1,6-dihydropyrimidin-4-yl]-2-fluorobenzonitrile] |  | Solubility in FeSSiF [2]: 960 µg/mL (≈ 2130 µM); XRPD of residue [2]: Amorphous
11 | COc1ccc(-c2c(-c3ccc(C#N)c(F)c3)nc(N3CCC(N)CC3)n(C)c2=O)cc1F [BSA 2, 4-[2-(4-aminopiperidin-1-yl)-5-(3-fluoro-4-methoxyphenyl)-1-methyl-6-oxo-1,6-dihydropyrimidin-4-yl]-2-fluorobenzonitrile] | Extra peaks observed | 
12 | COc1ccc(-c2c(-c3ccc(C#N)c(F)c3)nc(N3CCC(N)CC3)n(C)c2=O)cc1F [pTSA 1, 4-[2-(4-aminopiperidin-1-yl)-5-(3-fluoro-4-methoxyphenyl)-1-methyl-6-oxo-1,6-dihydropyrimidin-4-yl]-2-fluorobenzonitrile] | No form change | Solubility in FeSSiF [2]: 870 µg/mL (≈ 1930 µM); XRPD of residue [2]: pTSA 1; thermal stability [3]: good thermal stability; stability and solubility when compared to the HCl salt [4]: improved stability and solubility
13 | COc1ccc(-c2c(-c3ccc(C#N)c(F)c3)nc(N3CCC(N)CC3)n(C)c2=O)cc1F [MA 2, 4-[2-(4-aminopiperidin-1-yl)-5-(3-fluoro-4-methoxyphenyl)-1-methyl-6-oxo-1,6-dihydropyrimidin-4-yl]-2-fluorobenzonitrile] | Pattern change | 
14 | COc1ccc(-c2c(-c3ccc(C#N)c(F)c3)nc(N3CCC(N)CC3)n(C)c2=O)cc1F [MA 3, 4-[2-(4-aminopiperidin-1-yl)-5-(3-fluoro-4-methoxyphenyl)-1-methyl-6-oxo-1,6-dihydropyrimidin-4-yl]-2-fluorobenzonitrile] | Pattern change | 
15 | COc1ccc(-c2c(-c3ccc(C#N)c(F)c3)nc(N3CCC(N)CC3)n(C)c2=O)cc1F [MLNA 1, 4-[2-(4-aminopiperidin-1-yl)-5-(3-fluoro-4-methoxyphenyl)-1-methyl-6-oxo-1,6-dihydropyrimidin-4-yl]-2-fluorobenzonitrile] | Pattern change | 
16 | COc1ccc(-c2c(-c3ccc(C#N)c(F)c3)nc(N3CCC(N)CC3)n(C)c2=O)cc1F [PHOA 3, 4-[2-(4-aminopiperidin-1-yl)-5-(3-fluoro-4-methoxyphenyl)-1-methyl-6-oxo-1,6-dihydropyrimidin-4-yl]-2-fluorobenzonitrile] | Reduced crystallinity | 
17 | COc1ccc(-c2c(-c3ccc(C#N)c(F)c3)nc(N3CCC(N)CC3)n(C)c2=O)cc1F [MSA 2, 4-[2-(4-aminopiperidin-1-yl)-5-(3-fluoro-4-methoxyphenyl)-1-methyl-6-oxo-1,6-dihydropyrimidin-4-yl]-2-fluorobenzonitrile] | Extra peaks observed | 
18 | COc1ccc(-c2c(-c3ccc(C#N)c(F)c3)nc(N3CCC(N)CC3)n(C)c2=O)cc1F [FUA 3, 4-[2-(4-aminopiperidin-1-yl)-5-(3-fluoro-4-methoxyphenyl)-1-methyl-6-oxo-1,6-dihydropyrimidin-4-yl]-2-fluorobenzonitrile] | Pattern change | 
19 | COc1ccc(-c2c(-c3ccc(C#N)c(F)c3)nc(N3CCC(N)CC3)n(C)c2=O)cc1F [MA 1, 4-[2-(4-aminopiperidin-1-yl)-5-(3-fluoro-4-methoxyphenyl)-1-methyl-6-oxo-1,6-dihydropyrimidin-4-yl]-2-fluorobenzonitrile] | Amorphous | Solubility in FeSSiF [2]: 630 µg/mL (≈ 1400 µM); XRPD of residue [2]: Amorphous
20 | COc1ccc(-c2c(-c3ccc(C#N)c(F)c3)nc(N3CCC(N)CC3)n(C)c2=O)cc1F [FUA 2, 4-[2-(4-aminopiperidin-1-yl)-5-(3-fluoro-4-methoxyphenyl)-1-methyl-6-oxo-1,6-dihydropyrimidin-4-yl]-2-fluorobenzonitrile] | Increased | 
21 | COc1ccc(-c2c(-c3ccc(C#N)c(F)c3)nc(N3CCC(N)CC3)n(C)c2=O)cc1F [BA 2, 4-[2-(4-aminopiperidin-1-yl)-5-(3-fluoro-4-methoxyphenyl)-1-methyl-6-oxo-1,6-dihydropyrimidin-4-yl]-2-fluorobenzonitrile] | No significant | 
22 | COc1ccc(-c2c(-c3ccc(C#N)c(F)c3)nc(N3CCC(N)CC3)n(C)c2=O)cc1F [FUA 1, 4-[2-(4-aminopiperidin-1-yl)-5-(3-fluoro-4-methoxyphenyl)-1-methyl-6-oxo-1,6-dihydropyrimidin-4-yl]-2-fluorobenzonitrile] | Pattern change | 
